# The supplement of paper PMC12317010
# Counter-ions that a name gives are not always drawn.
# Test: collision cross section in nitrogen (drift tube, single-field); higher = larger gas-phase ion size
# [1] = ion type: [M+H], ion source: APCI, ion mode: Positive
# [2] = ion type: [M+H], ion source: ESI, ion mode: Positive
# [3] = ion type: [M+Na], ion source: ESI, ion mode: Positive
# [4] = ion type: [M-H], ion source: ESI, ion mode: Negative
# [5] = ion type: [M+], ion source: APCI, ion mode: Positive
# 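Also: chemical standards at 10 µM analysed by drift tube IMS-QTOF MS in about 3.95 torr nitrogen, mean of duplicate injections differing ≤1%, mass error below 10 ppm.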
SMILES,collision cross section in nitrogen [1] [Å²],collision cross section in nitrogen [2] [Å²],collision cross section in nitrogen [4] [Å²],also measured
NCCCN1CCOCC1 [4-Morpholinepropanamine],128.3,128.2,–,–
O=S(=O)(O)CCCN1CCOCC1 [4-Morpholinepropanesulfonic acid],142.7,142.4,149.5,collision cross section in nitrogen [3]: 154.6 Å²
Nc1cc([N+](=O)[O-])ccc1C(=O)O [4-Nitroanthranilic acid],–,–,133.5,–
O=[N+]([O-])c1ccc(O)cc1 [4-Nitrophenol],–,–,120.6,–
O=[N+]([O-])c1cc[n+]([O-])cc1 [4-Nitropyridine-1-oxide],–,–,119.2,–
O=Nc1ccc(Nc2ccccc2)cc1 [4-Nitrosodiphenylamine],144.3,144.2,144.7,–
CCCCCCCCCc1ccc(O)cc1 [4-Nonylphenol],–,–,161.4,–
CCCCCCCCc1ccc(O)cc1 [4-Octylphenol],–,–,159.9,–
CCCCCc1ccc(N)cc1 [4-Pentylaniline],–,156.5,–,–
CCCCCc1ccc(O)cc1 [4-Pentylphenol],–,–,146.9,–
Oc1ccc(Oc2ccccc2)cc1 [4-Phenoxyphenol],–,–,145.7,–
Oc1ccc(-c2ccccc2)cc1 [4-Phenylphenol],–,–,139.3,–
Cc1ccc(-c2ccccc2)cc1 [4-Phenyltoluene],–,–,–,collision cross section in nitrogen [3]: 135.4 Å²
CCCc1ccc(O)cc1 [4-Propylphenol],–,–,134.5,–
Oc1ccncc1 [4-Pyridinol],116,116.2,113.9,–
O=C(O)c1ccc(S(=O)(=O)O)cc1C(=O)O [4-Sulfophthalic acid],–,–,145.3,–
Cc1ccc(S(N)(=O)=O)cc1 [4-Toluenesulfonamide],–,–,136.3,–
CC(=O)CCc1ccc(OC(C)=O)cc1 [4-[4-(Acetyloxy)phenyl]-2-butanone],–,–,–,collision cross section in nitrogen [3]: 146.4 Å²
"CCN(CC)c1ccc(C=NN(c2ccccc2)c2ccccc2)cc1 [4-[(Diphenylhydrazinylidene)methyl]-N,N-diethylaniline]",189.8,200.7,–,–

SMILES,collision cross section in nitrogen [1] [Å²],collision cross section in nitrogen [2] [Å²],collision cross section in nitrogen [4] [Å²],also measured
CC(C)(C)c1ccc(N)cc1 [4-tert-Butylaniline],147.3,147.6,–,–
CC(C)(C)c1ccc(O)c(O)c1 [4-tert-Butylcatechol],–,–,139.3,–
CC(C)(C)c1ccc(OC(=O)c2ccccc2O)cc1 [4-tert-Butylphenyl salicylate],–,–,168.4,–
N#Cc1ccc(CC(=O)c2cccc(C(F)(F)F)c2)cc1 [4-{2-Oxo-2-[3-(trifluoromethyl)phenyl]ethyl}benzonitrile],–,–,163,–
"O=C1NC(=O)C(c2ccccc2)(c2ccccc2)N1 [5,5-Diphenylhydantoin]",–,–,160,–
"c1cnc2c(n1)CCCC2 [5,6,7,8-Tetrahydroquinoxaline]",126.6,–,–,–
"O=c1cc(-c2ccccc2)oc2ccc3ccccc3c12 [5,6-Benzoflavone]",160.8,160.2,–,collision cross section in nitrogen [3]: 181.8 Å²
"COc1cc(OC)c2ccc(=O)oc2c1 [5,7-Dimethoxy-2H-chromen-2-one]",139.1,139.6,–,–
"O=[N+]([O-])c1ccc(-c2nnc(O)o2)o1 [5-(5-Nitro-2-furyl)-1,3,4-oxadiazole-2-ol]",–,–,135.2,–
Cc1ccc(N)cc1S(=O)(=O)O [5-Amino-2-methylbenzenesulfonic acid],–,–,137.7,–
Cc1ccc(N)cc1O [5-Amino-2-methylphenol],–,123.5,–,–
Nc1ccc(O)c(C(=O)O)c1 [5-Aminosalicylic acid],–,–,127.8,–
"S=c1[nH]c2cc(Cl)ccc2s1 [5-Chloro-1,3-benzothiazole-2(3H)-thione]",–,–,133.3,–
O=C(Nc1ccc([N+](=O)[O-])cc1Cl)c1cc(Cl)ccc1O [5-Chloro-N-(2-chloro-4-nitrophenyl)-2-hydroxybenzamide],–,–,164.6,–
NC(=O)c1ccc(N)nc1 [6-aminopyridine-3-carboxamide],130.2,131.3,124.5,–
"O=[PH]1Oc2ccccc2-c2ccccc21 (stereo not given) [6H-Dibenzo[c,e][1,2]oxaphosphinine 6-oxide]",–,146.1,145.8,–
"O=C1c2ccccc2C(=O)c2c1ccc1ccccc21 [7,12-Benz(a)anthraquinone]",–,–,155.7,–
"Cc1c2ccccc2c(C)c2c1ccc1ccccc12 [7,12-Dimethylbenz[a]anthracene]",–,–,–,collision cross section in nitrogen [5]: 155.2 Å²

# More lines, main results first:
collision cross section in nitrogen [1] [Å²],collision cross section in nitrogen [2] [Å²],collision cross section in nitrogen [4] [Å²],SMILES,also measured
–,128.5,123.2,Clc1ccc2[nH]nnc2c1 [5-Chlorobenzotriazole],–
–,–,151.9,O=C(Nc1ccccc1)c1cc(Cl)ccc1O [5-Chlorosalicylanilide],–
–,–,129.7,CCC1(C)NC(=O)NC1=O (stereo not given) [5-Ethyl-5-methylhydantoin],–
–,–,115.4,O=c1[nH]cc(F)c(=O)[nH]1 [5-Fluorouracil],–
139.3,140.3,–,COc1c2ccoc2cc2oc(=O)ccc12 [5-Methoxypsoralen],–
125.1,124.8,125.2,Cc1ccc2[nH]nnc2c1 [5-Methyl-1H-benzotriazole],–
–,–,136.9,CC(C)CCCC(=O)O [5-Methylhexanoic acid],–
126.5,–,–,Cc1cccc2nccnc12 [5-Methylquinoxaline],–
–,–,133.6,O=[N+]([O-])c1ccc2[nH]c(S)nc2c1 [5-Nitro-2-mercaptobenzimidazole],–
–,–,127.7,c1ccc(-c2nnn[nH]2)cc1 [5-Phenyl-1H-tetrazole],–
127.6,–,–,"CC1CCc2nccnc21 (stereo not given) [6,7-Dihydro-5-methyl-5H-cyclopentapyrazine]",–
138,138.5,–,CC(C)c1ccc2ncccc2c1 [6-(1-Methylethyl)quinoline],–
–,–,150.3,Nc1ccc2cc(S(=O)(=O)O)ccc2c1 [6-Aminonaphthalene-2-sulfonic acid],–
–,–,125.6,"O=c1[nH]c2ccc(Cl)cc2o1 [6-Chloro-2,3-dihydrobenzoxazol-2-one]",–
–,–,140.5,Cc1cc(O)c(C(C)C)cc1Cl [6-Chlorothymol],–
–,–,185.8,Oc1ccc2cc(SSc3ccc4cc(O)ccc4c3)ccc2c1 [6-Hydroxy-2-naphthyl disulfide],–

collision cross section in nitrogen [1] [Å²],collision cross section in nitrogen [2] [Å²],collision cross section in nitrogen [4] [Å²],SMILES,also measured
–,120.2,115,Oc1cccc(O)n1 [6-Hydroxy-2-oxopyridinium chloride],–
136.6,136.6,–,COc1ccc2nc(N)sc2c1 [6-Methoxy-2-benzothiazolamine],–
134.5,134.8,–,"Cc1ccc2c(c1)CCCN2 [6-Methyl-1,2,3,4-tetrahydroquinoline]",–
–,–,123.1,Cc1cc(=O)[nH]c(=S)[nH]1 [6-Methyl-2-thiouracil],–
118.1,119.4,120.4,Cc1ccc(O)cn1 [6-Methyl-3-hydroxypyridine],–
118.6,119.5,–,Cc1cccc(N)n1 [6-Methylpyridin-2-amine],–
125.7,125.8,–,Cc1ccc2ncccc2c1 [6-Methylquinoline],collision cross section in nitrogen [5]: 124.3 Å²
–,–,120.5,Cc1cc(=O)[nH]c(=O)[nH]1 [6-Methyluracil],–
136.5,136.5,123.6,O=[N+]([O-])c1ccc2[nH]cnc2c1 [6-Nitrobenzimidazole],–
140.2,140.6,–,"Nc1nc(N)nc(-c2ccccc2)n1 [6-Phenyl-1,3,5-triazine-2,4-diamine]",–
132.4,133.4,128.9,Nc1nc2nc[nH]c2c(=S)[nH]1 [6-Thioguanine],collision cross section in nitrogen [3]: 142.3 Å²
–,–,144.9,"Cc1cc(C)c(O)c(C(C)(C)C)c1 [6-tert-Butyl-2,4-xylenol]",–
140.9,141.3,148.6,Cc1cc(=O)oc2cc(N(C)C)ccc12 [7-(Dimethylamino)-4-methylcoumarin],collision cross section in nitrogen [3]: 165.6 Å²
–,–,153.3,Nc1ccc2c(O)cc(S(=O)(=O)O)cc2c1 [7-Amino-4-hydroxynaphthalene-2-sulfonic acid],–
152.6,152.6,159.4,CCN(CC)c1ccc2c(C)cc(=O)oc2c1 [7-Diethylamino-4-methylcoumarin],collision cross section in nitrogen [3]: 176.4 Å²
–,–,175.2,"CCCCC(CC)CCC(CC(C)C)OS(=O)(=O)O (stereo not given) [7-Ethyl-2-methyl-4-undecanolsulfate, sodium salt]",–
